Assay results published in patent publication US20250283049A1, “AGENT FOR CULTURING ORGANOID IN ABSENCE OF EXTRACELLULAR MATRIX” (KEIO UNIVERSITY, priority 2022, published 2025).

Tests used:
Type in all cases: cell-based
[1] = system: phosphorylated ERK (Thr202/Tyr204); test: ERK phosphorylation by Western blotting in human small intestine-derived organoids; conditions: absence of Matrigel; Lats-IN 10 μM
Procedure: Next, human small intestine-derived organoids were cultured in the absence or presence of Matrigel (registered trademark) and in the absence or presence of Lats-IN (final concentration: 10 μM), and ERK phosphorylated by EGF signaling was detected by Western blotting.
FIG. 17 presents graphs showing the results of Western blotting. In FIG. 17, “pERK” represents phosphorylated ERK, and “total ERK” represents total ERK (the sum of phosphorylated ERK and non-phosphorylated ERK). In addition, “pYAP” represents phosphorylated YAP, and “total YAP” represents total YAP (the sum of phosphorylated YAP and non-phosphorylated YAP). The antibody against phosphorylated ERK used was phospho-ERK (Thr202/Tyr204) (#4370, Cell Signaling Technology, Inc.). The antibody against total ERK used was total-ERK (#4695, Cell Signaling Technology, Inc.). The antibody against phosphorylated YAP used was phospho-YAP (Ser127) (#4911, Cell Signaling Technology, Inc.). The antibody against total YAP used was total-YAP (#14074, Cell Signaling Technology, Inc.).

[2] = system: human large intestine-derived organoids; test: Immunostaining for localization of YAP and Ki67; conditions: 10 μM Lats-IN; in both presence and absence of Matrigel; approximately 10% without Lats-IN
Procedure: (§1) Human small intestine-derived organoids and human large intestine-derived organoids were cultured in the absence and presence of Matrigel (registered trademark) and in the absence and presence of a LATS kinase inhibitor (final concentration: 10 μM) in the same manner as in Experimental Example 2. Subsequently, immunostaining was performed to confirm the localization of YAP. In addition, Ki67, a marker for cell proliferation, was detected to confirm proliferating cells.
The leftmost column of FIG. 6 presents photographs showing the results of immunostaining of the human large intestine-derived organoids cultured in the presence of Matrigel (registered trademark) and in the absence of Lats-IN (Ctrl). […]
(§2) FIG. 7 is a graph summarizing the results of FIGS. 5 and 6. As a result, in both the presence and absence of Matrigel (registered trademark), in the absence of Lats-IN, YAP was localized in the cytoplasm, and when the number of Ki67-positive cells, which indicates cell proliferation, was counted, the percentage of Ki67-positive cells was approximately 10% of the total cells. In contrast, in both the presence and absence of Matrigel (registered trademark), in the presence of Lats-IN, the number of cells in which YAP was localized in the nucleus was counted. […]

[3] = system: human small intestine-derived organoids; test: Immunostaining for localization of YAP and Ki67; conditions: 10 μM Lats-IN; in both presence and absence of Matrigel; approximately 10% without Lats-IN
Procedure: as §1
The fields of view in the second, third, and fourth panels from the top correspond to the area enclosed in the square in the uppermost panel.
The fields of view in the second, third, and fourth panels from the top correspond to the area enclosed in the square in the uppermost panel. The scale bar represents 50 μm. […]
as §2

[4] = system: human small intestine-derived organoid; test: Culture of organoids in presence of Matrigel and LATS kinase inhibitor; cell number by ATP (CellTiter-Glo 3D); conditions: presence of Matrigel; 10 mM Lats-IN as printed; 7 days of culture; vs control without Lats-IN
Procedure: A human small intestine-derived organoid and a human large intestine-derived organoid were cultured in the presence of an inhibitor of LATS1 kinase and LATS2 kinase, Lats-IN-1 (CAS No. 1424635-83-5, hereinafter sometimes referred to as “Lats-IN” and also referred to as “TRULI”), and their dynamics were observed.
The human small intestine-derived organoid and the human large intestine-derived organoid used were those established from tissues derived from patients with gastrointestinal tumors who provided informed consent, in accordance with an ethical research plan approved by the Ethics Committee of the Keio University School of Medicine.
Each organoid was dissociated into single cells using TrypLE Express (Thermo Fisher Scientific Inc.) to obtain a cell suspension. […]
The cell proliferation was measured by measuring adenosine triphosphate (ATP) using a commercially available kit (product name “CellTiter-Glo 3D,” Promega Corporation).
The upper left panel of FIG. 2 is a photograph of a control (Ctrl) human small intestine-derived organoid cultured in the absence of Lats-IN, and the upper center panel of FIG. 2 is a photograph of a human small intestine-derived organoid cultured in the presence of Lats-IN. […] The vertical axis of the graph represents luminescence intensity (relative value) indicating the amount of ATP present.

For `O=C(N=c1sccn1Cc1ccccc1)c1c[nH]c2ncccc12` [Lats-IN], the ERK phosphorylation [1] was “increased to a level equivalent to that in the presence of Matrigel”, the “percentage of Ki67-positive cells” value [2] was ≥ 50 % of the total cells and the “percentage of Ki67-positive cells” value [3] was ≥ 50 % of the total cells. The “cell proliferation (cell number per well, ATP luminescence)” value [4] was “significantly activated”.
